# Experimental data as given in US9714234B2, “Carbazole carboxamide compounds” (Bristol-Myers Squibb Company, priority 2013, dated 2017).
# Experiments:
# [1] = biological target: human recombinant Btk (Homo sapiens (Human), UniProt Q06187); experiment: Human Recombinant Btk Enzyme Assay; type: biochemical; conditions: human recombinant Btk 1 nM, ATP 20 μM
# [2] = biological target: Jak2 tyrosine kinase (Homo sapiens (Human), UniProt O60674); experiment: Jak2 Tyrosine Kinase Assay; type: biochemical; conditions: for IC50: Jak2 1 nM, ATP 30 μM; for Ratio of Jak2/Btk IC50 values: selectivity for Btk over Jak2, larger value = more selective for Btk
# Sequence of Jak2 tyrosine kinase (O60674 whole entry): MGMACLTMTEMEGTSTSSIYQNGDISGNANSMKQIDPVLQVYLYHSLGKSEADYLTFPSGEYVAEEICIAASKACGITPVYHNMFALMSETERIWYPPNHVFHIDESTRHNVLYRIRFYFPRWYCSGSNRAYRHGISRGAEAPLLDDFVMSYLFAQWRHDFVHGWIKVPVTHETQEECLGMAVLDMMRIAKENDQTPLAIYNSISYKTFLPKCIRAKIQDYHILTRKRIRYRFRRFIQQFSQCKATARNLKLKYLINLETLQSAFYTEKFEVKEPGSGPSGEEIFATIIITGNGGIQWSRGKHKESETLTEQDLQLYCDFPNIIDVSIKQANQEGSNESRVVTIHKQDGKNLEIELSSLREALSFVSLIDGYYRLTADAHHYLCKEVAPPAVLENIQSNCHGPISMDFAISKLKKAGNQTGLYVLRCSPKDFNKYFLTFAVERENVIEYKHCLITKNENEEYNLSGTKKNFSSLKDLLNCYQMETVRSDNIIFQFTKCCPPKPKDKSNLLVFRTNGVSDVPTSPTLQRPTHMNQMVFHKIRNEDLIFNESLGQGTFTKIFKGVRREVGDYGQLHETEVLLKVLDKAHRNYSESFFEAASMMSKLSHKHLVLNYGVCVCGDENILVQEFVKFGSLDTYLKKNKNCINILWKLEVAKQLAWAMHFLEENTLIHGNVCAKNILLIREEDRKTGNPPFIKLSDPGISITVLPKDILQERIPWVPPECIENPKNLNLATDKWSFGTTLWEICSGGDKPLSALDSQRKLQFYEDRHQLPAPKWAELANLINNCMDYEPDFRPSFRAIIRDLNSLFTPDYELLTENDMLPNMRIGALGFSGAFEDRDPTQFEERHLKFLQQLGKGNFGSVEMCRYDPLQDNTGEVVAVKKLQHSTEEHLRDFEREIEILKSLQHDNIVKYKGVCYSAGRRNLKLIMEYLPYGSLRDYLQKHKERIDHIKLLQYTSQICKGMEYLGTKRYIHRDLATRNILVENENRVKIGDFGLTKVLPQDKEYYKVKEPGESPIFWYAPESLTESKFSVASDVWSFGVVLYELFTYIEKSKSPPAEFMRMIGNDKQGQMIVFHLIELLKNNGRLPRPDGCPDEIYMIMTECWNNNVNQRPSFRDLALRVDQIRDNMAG
# [3] = tested on: CD69 expression on B cells in human whole blood; experiment: Whole Blood Assays of BCR-Stimulated CD69 Expression on B Cells; type: cell-based; conditions: anti-human IgM + IL-4 stimulation, 18 h at 37° C.
# Sequence of human recombinant Btk (Q06187 whole entry): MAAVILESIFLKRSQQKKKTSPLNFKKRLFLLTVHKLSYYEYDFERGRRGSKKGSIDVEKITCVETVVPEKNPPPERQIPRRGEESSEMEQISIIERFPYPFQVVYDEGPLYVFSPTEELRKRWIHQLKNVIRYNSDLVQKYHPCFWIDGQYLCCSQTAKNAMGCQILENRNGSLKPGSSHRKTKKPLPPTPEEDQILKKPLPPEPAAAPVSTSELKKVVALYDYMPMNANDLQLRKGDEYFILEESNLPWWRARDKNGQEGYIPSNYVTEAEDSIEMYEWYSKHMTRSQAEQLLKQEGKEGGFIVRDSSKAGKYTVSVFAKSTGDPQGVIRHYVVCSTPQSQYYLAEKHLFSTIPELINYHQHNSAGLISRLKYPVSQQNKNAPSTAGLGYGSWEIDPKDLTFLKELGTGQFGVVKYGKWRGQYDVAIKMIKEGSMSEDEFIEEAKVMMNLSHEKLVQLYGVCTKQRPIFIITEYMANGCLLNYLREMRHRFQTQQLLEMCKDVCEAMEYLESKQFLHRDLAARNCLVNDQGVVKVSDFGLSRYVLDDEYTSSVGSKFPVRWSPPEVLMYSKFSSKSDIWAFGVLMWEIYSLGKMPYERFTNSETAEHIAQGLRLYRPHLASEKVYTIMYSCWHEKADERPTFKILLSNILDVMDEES
Molecule,IC50 [1] [nM],IC50 [2] [nM],Ratio of Jak2/Btk IC50 values [2],IC50 ([3]; B-cell) [nM],IC50 [3] [nM],"IC50 ([3]; Homo sapiens, B-cell, 18 h) [nM]"
"Cc1c(-c2ccc(C(N)=O)c3[nH]c4cc(C(C)(C)O)ccc4c23)cccc1-n1c(=O)ccn(-c2ccc(F)cc2)c1=O [Example 9, 4-(3-(3-(4-Fluorophenyl)-2,6-dioxo-2,3-dihydropyrimidin-1(6H)-yl)-2-methylphenyl)-7-(2-hydroxypropan-2-yl)-9H-carbazole-1-carboxamide]",2.2,1000,450,210,,
"Cc1c(-c2ccc(C(N)=O)c3[nH]c4cc(C(C)(C)O)ccc4c23)cccc1-n1c(=O)c2cc(F)ccc2n(C)c1=O [Example 8, 4-(3-(6-Fluoro-1-methyl-2,4-dioxo-1,2-dihydroquinazolin-3(4H)-yl)-2-methylphenyl)-7-(2-hydroxypropan-2-yl)-9H-carbazole-1-carboxamide]",5.8,2200,380,160,,
"Cc1c(-c2ccc(C(N)=O)c3[nH]c4cc(C(C)(C)O)ccc4c23)cccc1-n1c(=O)cc2c(Cl)cccn2c1=O [Example 14, 4-(3-(R)-(5-Chloro-1,3-dioxo-1H-pyrido[1,2-c]pyrimidin-2(3H)-yl)-2-methylphenyl)-7-(2-hydroxypropan-2-yl)-9H-carbazole-1-carboxamide]",,,,,78,
"[2H]C([2H])([2H])n1c(=O)n(-c2cccc(-c3ccc(C(N)=O)c4[nH]c5cc(C(C)(C)O)ccc5c34)c2C)c(=O)c2cccc(F)c21 (atropisomer, axis not shown) [Example 4, 4-(3-(S)-(8-Fluoro-1-methyl(d3)-2,4-dioxo-1,2-dihydroquinazolin-3(4H)-yl)-2-methylphenyl)-7-(2-hydroxypropan-2-yl)-9H-carbazole-1-carboxamide]",,2000,,,190,
"Cc1c(-c2ccc(C(N)=O)c3[nH]c4cc(C(C)(C)O)ccc4c23)cccc1-n1c(=O)cc2c(Cl)cccn2c1=O (atropisomer, axis not shown) [Example 15, 4-(3-(S)-(5-Chloro-1,3-dioxo-1H-pyrido[1,2-c]pyrimidin-2(3H)-yl)-2-methylphenyl)-7-(2-hydroxypropan-2-yl)-9H-carbazole-1-carboxamide]",0.41,1000,2400,,59,
"4-(3-(S)-(8-Fluoro-1-methyl-2,4-dioxo-1,2-dihydroquinazolin-3(4H)-yl)-2-methylphenyl)-7-(2-hydroxypropan-2-yl)-5-methyl-9H-carbazole-1-carboxamide [Example 24]",0.59,> 2000,>3400,,160,
"Cc1c(-c2ccc(C(N)=O)c3[nH]c4cc(C(C)(C)O)ccc4c23)cccc1-n1c(=O)[nH]c2c(F)cccc2c1=O (single isomer, unassigned) [Example 1, 4-(3-(8-Fluoro-2,4-dioxo-1,2-dihydroquinazolin-3(4H)-yl)-2-methylphenyl)-7-(2-hydroxypropan-2-yl)-9H-carbazole-1-carboxamide]",1.5,1200,800,,,140
"Cc1c(-c2ccc(C(N)=O)c3[nH]c4cc(C(C)(C)O)ccc4c23)cccc1-n1c(=O)cc2c(Cl)cccn2c1=O [Example 13, 4-(3-(5-Chloro-1,3-dioxo-1H-pyrido[1,2-c]pyrimidin-2(3H)-yl)-2-methylphenyl)-7-(2-hydroxypropan-2-yl)-9H-carbazole-1-carboxamide]",0.94,1300,1400,,120,
"Cc1c(-c2ccc(C(N)=O)c3[nH]c4cc(C(C)(C)O)ccc4c23)cccc1-n1c(=O)[nH]c2c(F)cccc2c1=O (single isomer, unassigned) [Example 2, 4-(3-(8-Fluoro-2,4-dioxo-1,2-dihydroquinazolin-3(4H)-yl)-2-methylphenyl)-7-(2-hydroxypropan-2-yl)-9H-carbazole-1-carboxamide]",2.4,850,350,,200,
"COc1cccn2c(=O)n(-c3cccc(-c4ccc(C(N)=O)c5[nH]c6cc(C(C)(C)O)ccc6c45)c3C)c(=O)cc12 [Example 12, 7-(2-Hydroxypropan-2-yl)-4-(3-(5-methoxy-1,3-dioxo-1H-pyrido[1,2-c]pyrimidin-2(3H)-yl)-2-methylphenyl)-9H-carbazole-1-carboxamide]",0.52,980,1900,140,,
"Cn1c(=O)n(-c2cccc(-c3ccc(C(N)=O)c4[nH]c5cc(C(C)(C)O)ccc5c34)c2Cl)c(=O)c2cccc(F)c21 [Example 5, 4-(2-Chloro-3-(8-fluoro-1-methyl-2,4-dioxo-1,2-dihydroquinazolin-3(4H)-yl)phenyl)-7-(2-hydroxypropan-2-yl)-9H-carbazole-1-carboxamide]",0.9,1200,1300,180,,
"Cc1c(-c2ccc(C(N)=O)c3[nH]c4cc(C(C)(C)O)ccc4c23)cccc1-n1c(=O)c2cccc(F)c2n(C)c1=O (atropisomer, axis not shown) [Example 3, 4-(3-(S)-(8-Fluoro-1-methyl-2,4-dioxo-1,2-dihydroquinazolin-3(4H)-yl)-2-methylphenyl)-7-(2-hydroxypropan-2-yl)-9H-carbazole-1-carboxamide]",,1200,,,190,

# Results, then the molecule that gave them:
IC50 [1] [nM],IC50 [2] [nM],Ratio of Jak2/Btk IC50 values [2],IC50 ([3]; B-cell) [nM],IC50 [3] [nM],"IC50 ([3]; Homo sapiens, B-cell, 18 h) [nM]",Molecule
0.7,4600,6600,69,,,"Cc1c(-c2ccc(C(N)=O)c3[nH]c4cc(C(C)(C)O)cc(C)c4c23)cccc1-n1c(=O)c2cccc(F)c2n(C)c1=O (single isomer, unassigned) [Example 25]"
2.1,2200,1000,220,,,"Cc1c(-c2ccc(C(N)=O)c3[nH]c4cc(NC(=O)C(C)(C)C)ccc4c23)cccc1-n1c(=O)cc2c(Cl)cccn2c1=O [Example 16, 4-(3-(5-Chloro-1,3-dioxo-1H-pyrido[1,2-c]pyrimidin-2(3H)-yl)-2-methylphenyl)-7-pivalamido-9H-carbazole-1-carboxamide]"
0.84,> 2000,>2400,200,,,"Cc1c(-c2ccc(C(N)=O)c3[nH]c4c(C)c(C(C)(C)O)ccc4c23)cccc1-n1c(=O)c2cccc(F)c2n(C)c1=O (atropisomer, axis not shown) [Example 26, 4-(3-(S)-(8-Fluoro-1-methyl-2,4-dioxo-1,2-dihydroquinazolin-3(4H)-yl)-2-methylphenyl)-7-(2-hydroxypropan-2-yl)-8-methyl-9H-carbazole-1-carboxamide]"
,,29,,,,"Cc1nc(C(N)=O)c2[nH]c3cc(C(C)(C)O)ccc3c2c1-c1cccc(-n2cnc3ccccc3c2=O)c1C [compound 35, 7-(2-Hydroxypropan-2-yl)-3-methyl-4-(2-methyl-3-(4-oxoquinazolin-3(4H)-yl)phenyl)-9H-pyrido[3,4-b]indole-1-carboxamide, reference compound]"
1.6,1900,1200,140,,,"Cc1c(-c2ccc(C(N)=O)c3[nH]c4cc(C(C)(C)O)ccc4c23)cccc1-n1c(=O)c(F)c2ccccn2c1=O [Example 19, 4-(3-(4-Fluoro-1,3-dioxo-1H-pyrido[1,2-c]pyrimidin-2(3H)-yl)-2-methylphenyl)-7-(2-hydroxypropan-2-yl)-9H-carbazole-1-carboxamide]"
1.7,1900,1100,110,,,"COCc1ccc2c(c1)[nH]c1c(C(N)=O)ccc(-c3cccc(-n4c(=O)cc5c(Cl)cccn5c4=O)c3C)c12 [Example 17, 4-(3-(5-Chloro-1,3-dioxo-1H-pyrido[1,2-c]pyrimidin-2(3H)-yl)-2-methylphenyl)-7-(methoxymethyl)-9H-carbazole-1-carboxamide]"
2.3,740,320,130,,,"COCc1ccc2c(c1)[nH]c1c(C(N)=O)ccc(-c3cccc(-n4c(=O)cc5c(F)cccn5c4=O)c3C)c12 [Example 18, 4-(3-(5-Fluoro-1,3-dioxo-1H-pyrido[1,2-c]pyrimidin-2(3H)-yl)-2-methylphenyl)-7-(methoxymethyl)-9H-carbazole-1-carboxamide]"
1.6,570,360,130,,,"Cc1c(-c2ccc(C(N)=O)c3[nH]c4cc(C(C)(C)O)ccc4c23)cccc1-n1c(=O)cc2sccn2c1=O [Example 20, 4-(3-(5,7-Dioxo-5H-thiazolo[3,2-c]pyrimidin-6(7H)-yl)-2-methylphenyl)-7-(2-hydroxypropan-2-yl)-9H-carbazole-1-carboxamide]"
1.7,880,520,,91,,"Cc1c(-c2ccc(C(N)=O)c3[nH]c4cc(C(C)(C)O)ccc4c23)cccc1-n1c(=O)cc2c(F)cccn2c1=O [Example 22, 4-(3-(5-Fluoro-1,3-dioxo-1H-pyrido[1,2-c]pyrimidin-2(3H)-yl)-2-methylphenyl)-7-(2-hydroxypropan-2-yl)-9H-carbazole-1-carboxamide]"
,,,56,,,"Cc1c(-c2ccc(C(N)=O)c3[nH]c4cc(N(C)C)ccc4c23)cccc1-n1c(=O)cc2c(F)cccn2c1=O [Example 29, 7-(dimethylamino)-4-(3-(5-fluoro-1,3-dioxo-1H-pyrido[1,2-c]pyrimidin-2(3H)-yl)-2-methylphenyl)-9H-carbazole-1-carboxamide]"
,,,60,,,"Cc1c(-c2ccc(C(N)=O)c3[nH]c4cc(CN5CCCC5)ccc4c23)cccc1-n1c(=O)cc2c(Cl)cccn2c1=O [Example 31, 4-(3-(5-chloro-1,3-dioxo-1H-pyrido[1,2-c]pyrimidin-2(3H)-yl)-2-methylphenyl)-7-(pyrrolidin-1-ylmethyl)-9H-carbazole-1-carboxamide]"
